In patent publication US20260295053A1, “COMPOUNDS FOR DEGRADATION AND INHIBITION OF KRAS (G12D) PROTEIN” (Shenzhen Ionova Life Science Co., Ltd., priority 2023, published 2026):

Experiments:
AsPC-1 cells = assay: AsPC-1 cell proliferation assay (CellTiter Glo); format: cell-based; conditions: Homo sapiens, ASPC1, 144 h, 6 days
Outline: (§1)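 Read-outs were KRAS G12D immunofluorescence against β-actin after 24 h (DC50) and CellTiter Glo luminescence after 6 days (IC50). Compounds were titrated 1:3 from […] to 1.5 nM final on AsPC-1 cells at 37 °C, 5% CO2.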

KRAS (G12D) = target: T1, KRAS (G12D) (Homo sapiens, UniProt P01116, G12D); assay: KRAS (G12D) cellular degradation assay in AsPC-1 cells; format: cell-based; conditions: 24 hours, antibody fluorescence (Odyssey CLX), DC50 half-maximal degradation concentration
T1 construct: in-cell western with KRAS G12D antibody after 24 h
Outline: as §1

T1 sequence (P01116 1-188 isoform P01116-2 G12D): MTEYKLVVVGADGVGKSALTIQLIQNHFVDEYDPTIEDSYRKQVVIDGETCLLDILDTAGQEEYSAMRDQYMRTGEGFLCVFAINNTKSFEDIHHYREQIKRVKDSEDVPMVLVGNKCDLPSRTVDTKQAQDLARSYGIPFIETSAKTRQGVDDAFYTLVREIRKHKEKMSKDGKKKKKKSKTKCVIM

| Compound | IC50 (AsPC-1 cells) [nM] | DC50 (KRAS (G12D)) [nM] |
| --- | --- | --- |
| CO[C@@H](C)COc1nc(N2C[C@@H]3C[C@H]2CN3)c2cc(C3CC3)c(-c3c(C)c(F)cc4[nH]ncc34)c(OCc3ccc(-c4cn([C@H](C(=O)N5C[C@H](O)C[C@H]5C(=O)N[C@H](C#Cc5cccc(Cl)c5F)CO)C(C)C)nn4)cc3)c2n1 [Example 78, (2S,4R)-1-((2S)-2-(4-(4-(((4-((1S,4S)-2,5-diazabicyclo[2.2.1]heptan-2-yl)-6-cyclopropyl-7-(6-fluoro-5-methyl-1H-indazol-4-yl)-2-((S)-2-methoxypropoxy)quinazolin-8-yl)oxy)methyl)phenyl)-1H-1,2,3-triazol-1-yl)-3-methylbutanoyl)-N—((R)-4-(3-chloro-2-fluorophenyl)-1-hydroxybut-3-yn-2-yl)-4-hydroxypyrrolidine-2-carboxamide] | < 10 | 10 to 100 |
| Cc1ncsc1-c1ccc([C@H](CO)NC(=O)[C@@H]2C[C@@H](O)CN2C(=O)[C@H](C(C)C)n2cc(-c3ccc(COc4c(-c5c(C)c(F)cc6[nH]ncc56)c(C5CC5)cc5c(N6C[C@@H]7C[C@H]6CN7)nc(OCC6(C(F)F)CC6)nc45)cc3)nn2)cc1 [Example 79, (2S,4R)-1-((2S)-2-(4-(4-(((4-((1S,4S)-2,5-diazabicyclo[2.2.1]heptan-2-yl)-6-cyclopropyl-2-((1-(difluoromethyl)cyclopropyl)methoxy)-7-(6-fluoro-5-methyl-1H-indazol-4-yl)quinazolin-8-yl)oxy)methyl)phenyl)-1H-1,2,3-triazol-1-yl)-3-methylbutanoyl)-4-hydroxy-N—((R)-2-hydroxy-1-(4-(4-methylthiazol-5-yl)phenyl)ethyl)pyrrolidine-2-carboxamide] | < 10 | < 10 |
| CO[C@@H](C)COc1nc(N2C[C@@H]3C[C@H]2CN3)c2cc(C3CC3)c(-c3c(C)c(F)cc4[nH]ncc34)c(OCc3ccc(-c4cn([C@H](C(=O)N5C[C@H](O)C[C@H]5C(=O)N[C@H](C#Cc5cccc6scnc56)CO)C(C)C)nn4)cc3)c2n1 [Example 80] | 10 to 100 | 10 to 100 |
| CCn1nccc1C12CC(CNC(=O)[C@@H]3C[C@@H](O)CN3C(=O)[C@H](C(C)C)n3cc(-c4ccc(COc5c(-c6c(C)c(F)cc7[nH]ncc67)c(C6CC6)cc6c(N7C[C@@H]8C[C@H]7CN8)nc(OC[C@H](C)OC)nc56)cc4)nn3)(C1)C2 [Example 81, (2S,4R)-1-((2S)-2-(4-(4-(((4-((1S,4S)-2,5-diazabicyclo[2.2.1]heptan-2-yl)-6-cyclopropyl-7-(6-fluoro-5-methyl-1H-indazol-4-yl)-2-((S)-2-methoxypropoxy)quinazolin-8-yl)oxy)methyl)phenyl)-1H-1,2,3-triazol-1-yl)-3-methylbutanoyl)-N-((3-(1-ethyl-1H-pyrazol-5-yl)bicyclo[1.1.1]pentan-1-yl)methyl)-4-hydroxypyrrolidine-2-carboxamide] | 10 to 100 | 10 to 100 |
| CO[C@@H](C)COc1nc(N2C[C@@H]3C[C@H]2CN3)c2cc(C3CC3)c(-c3c(C)c(F)cc4[nH]ncc34)c(OCc3ccc(-c4cn([C@H](C(=O)N5C[C@H](O)C[C@H]5C(=O)N[C@H](c5ccc(-c6scnc6C)cc5)[C@H](C)O)C(C)C)nn4)cc3)c2n1 [Example 82, (2S,4R)-1-((2S)-2-(4-(4-(((4-((1S,4S)-2,5-diazabicyclo[2.2.1]heptan-2-yl)-6-cyclopropyl-7-(6-fluoro-5-methyl-1H-indazol-4-yl)-2-((S)-2-methoxypropoxy)quinazolin-8-yl)oxy)methyl)phenyl)-1H-1,2,3-triazol-1-yl)-3-methylbutanoyl)-4-hydroxy-N-((1R,2S)-2-hydroxy-1-(4-(4-methylthiazol-5-yl)phenyl)propyl)pyrrolidine-2-carboxamide] | < 10 | < 10 |
| CCn1nccc1-c1ccc([C@H](CO)NC(=O)[C@@H]2C[C@@H](O)CN2C(=O)[C@H](C(C)C)n2cc(-c3ccc(COc4c(-c5c(C)c(F)cc6[nH]ncc56)c(C5CC5)cc5c(N6C[C@@H]7C[C@H]6CN7)nc(OC(COC)C(F)F)nc45)cc3)nn2)cc1 (stereo partly drawn) [Example 83, (2S,4R)-1-((2S)-2-(4-(4-(((4-((1S,4S)-2,5-diazabicyclo[2.2.1]heptan-2-yl)-6-cyclopropyl-2-((1,1-difluoro-3-methoxypropan-2-yl)oxy)-7-(6-fluoro-5-methyl-1H-indazol-4-yl)quinazolin-8-yl)oxy)methyl)phenyl)-1H-1,2,3-triazol-1-yl)-3-methylbutanoyl)-N—((R)-1-(4-(1-ethyl-1H-pyrazol-5-yl)phenyl)-2-hydroxyethyl)-4-hydroxypyrrolidine-2-carboxamide] | < 10 | < 10 |
| CCn1nccc1-c1ccc([C@@H](NC(=O)[C@@H]2C[C@@H](O)CN2C(=O)[C@H](C(C)C)n2cc(-c3ccc(COc4c(-c5c(C)c(F)cc6n[nH]cc56)c(C5CC5)cc5c(N6C[C@@H]7C[C@H]6CN7)nc(OC6CCOCC6)nc45)cc3)nn2)[C@H](C)O)c2c1CC2 [Example 84, (2S,4R)-1-((2S)-2-(4-(4-(((4-((1S,4S)-2,5-diazabicyclo[2.2.1]heptan-2-yl)-6-cyclopropyl-7-(6-fluoro-5-methyl-1H-indazol-4-yl)-2-((tetrahydro-2H-pyran-4-yl)oxy)quinazolin-8-yl)oxy)methyl)phenyl)-1H-1,2,3-triazol-1-yl)-3-methylbutanoyl)-N-((1R,2S)-1-(5-(1-ethyl-1H-pyrazol-5-yl)bicyclo[4.2.0]octa-1(6),2,4-trien-2-yl)-2-hydroxypropyl)-4-hydroxypyrrolidine-2-carboxamide] | < 10 | < 10 |
| CCn1nccc1-c1ccc([C@@H](NC(=O)[C@@H]2C[C@@H](O)CN2C(=O)[C@H](C(C)C)n2cc(-c3ccc(COc4c(-c5c(C)c(F)cc6[nH]ncc56)c(C5CC5)cc5c(N6C[C@@H]7C[C@H]6CN7)nc(OC[C@H](C)OC)nc45)cc3)nn2)[C@H](C)O)c2c1CC2 [Example 85, (2S,4R)-1-((2S)-2-(4-(4-(((4-((1S,4S)-2,5-diazabicyclo[2.2.1]heptan-2-yl)-6-cyclopropyl-7-(6-fluoro-5-methyl-1H-indazol-4-yl)-2-((S)-2-methoxypropoxy)quinazolin-8-yl)oxy)methyl)phenyl)-1H-1,2,3-triazol-1-yl)-3-methylbutanoyl)-N-((1R,2S)-1-(5-(1-ethyl-1H-pyrazol-5-yl)bicyclo[4.2.0]octa-1(6),2,4-trien-2-yl)-2-hydroxypropyl)-4-hydroxypyrrolidine-2-carboxamide] | < 10 | < 10 |
| CCn1nccc1-c1ccc([C@H](CO)NC(=O)[C@@H]2C[C@@H](O)CN2C(=O)[C@H](C(C)C)n2cc(-c3ccc(COc4c(-c5c(C)c(F)cc6[nH]ncc56)c(C5CC5)cc5c(N6C[C@@H]7C[C@H]6CN7)nc(OC6CCC(OC)C6)nc45)cc3)nn2)cc1 (stereo partly drawn) [Example 86, (2S,4R)-1-((2S)-2-(4-(4-(((4-((1S,4S)-2,5-diazabicyclo[2.2.1]heptan-2-yl)-6-cyclopropyl-7-(6-fluoro-5-methyl-1H-indazol-4-yl)-2-((3-methoxycyclopentyl)oxy)quinazolin-8-yl)oxy)methyl)phenyl)-1H-1,2,3-triazol-1-yl)-3-methylbutanoyl)-N—((R)-1-(4-(1-ethyl-1H-pyrazol-5-yl)phenyl)-2-hydroxyethyl)-4-hydroxypyrrolidine-2-carboxamide] | < 10 | < 10 |
| CCn1nccc1-c1ccc([C@@H](NC(=O)[C@@H]2C[C@@H](O)CN2C(=O)[C@H](C(C)C)n2cc(-c3ccc(COc4c(-c5c(C)c(F)cc6[nH]ncc56)c(C5CC5)cc5c(N6C[C@@H]7C[C@H]6CN7)nc(OC6CCC7(CC6)COC7)nc45)cc3)nn2)[C@H](C)O)cc1 [Example 87, (2S,4R)-1-((2S)-2-(4-(4-(((2-((2-oxaspiro[3.5]nonan-7-yl)oxy)-4-((1S,4S)-2,5-diazabicyclo[2.2.1]heptan-2-yl)-6-cyclopropyl-7-(6-fluoro-5-methyl-1H-indazol-4-yl)quinazolin-8-yl)oxy)methyl)phenyl)-1H-1,2,3-triazol-1-yl)-3-methylbutanoyl)-N-((1R,2S)-1-(4-(1-ethyl-1H-pyrazol-5-yl)phenyl)-2-hydroxypropyl)-4-hydroxypyrrolidine-2-carboxamide] | < 10 | < 10 |
| CCn1nccc1-c1ccc([C@@H](NC(=O)[C@@H]2C[C@@H](O)CN2C(=O)[C@H](C(C)C)n2cc(-c3ccc(COc4c(-c5c(C)c(F)cc6[nH]ncc56)c(C5CCC5)cc5c(N6C[C@@H]7C[C@H]6CN7)nc(OC[C@H](C)OC)nc45)cc3)nn2)[C@H](C)O)cc1 [Example 88, (2S,4R)-1-((2S)-2-(4-(4-(((4-((1S,4S)-2,5-diazabicyclo[2.2.1]heptan-2-yl)-6-cyclobutyl-7-(6-fluoro-5-methyl-1H-indazol-4-yl)-2-((S)-2-methoxypropoxy)quinazolin-8-yl)oxy)methyl)phenyl)-1H-1,2,3-triazol-1-yl)-3-methylbutanoyl)-N-((1R,2S)-1-(4-(1-ethyl-1H-pyrazol-5-yl)phenyl)-2-hydroxypropyl)-4-hydroxypyrrolidine-2-carboxamide] | < 10 | < 10 |
| CCn1nccc1-c1ccc([C@@H](NC(=O)[C@@H]2C[C@@H](O)CN2C(=O)[C@H](C(C)C)n2cc(-c3ccc(COc4c(-c5c(C)c(F)c(F)c6[nH]ncc56)c(C5CC5)cc5c(N6C[C@@H]7C[C@H]6CN7)nc(OC[C@H](C)OC)nc45)cc3)nn2)[C@H](C)O)cc1 [Example 89, (2S,4R)-1-((2S)-2-(4-(4-(((4-((1S,4S)-2,5-diazabicyclo[2.2.1]heptan-2-yl)-6-cyclopropyl-7-(6,7-difluoro-5-methyl-1H-indazol-4-yl)-2-((S)-2-methoxypropoxy)quinazolin-8-yl)oxy)methyl)phenyl)-1H-1,2,3-triazol-1-yl)-3-methylbutanoyl)-N-((1R,2S)-1-(4-(1-ethyl-1H-pyrazol-5-yl)phenyl)-2-hydroxypropyl)-4-hydroxypyrrolidine-2-carboxamide] | < 10 | < 10 |
